The NIST ThermoML archive (doi:10.1021/je0342421)

Conditions: Liquid

CCOC(C)(C)C [2-ethoxy-2-methylpropane]
Conditions	vapor or sublimation pressure [kPa]
312.49 K	31.7
318.55 K	40.2
323.25 K	47.2
325.18 K	51.4
326.6 K	54.1
329.02 K	59
331.96 K	65.3
333.28 K	67.4
335.92 K	74.8
338.08 K	80.5
340.01 K	85.8
341.49 K	90.1
342.88 K	94.3
343.86 K	97
345.77 K	102.8
